Data as given in patent US11560546B2, “Methods for neural conversion of human embryonic stem cells” (MEMORIAL SLOAN KETTERING CANCER CENTER, priority 2009, dated 2023).
Where a name gives a salt, the structure may show the parent alone.

Tests used:
hESCs [1] = assay: Neural induction of hESC under adherent conditions, PAX6 expression; format: cell-based, human; settings: 10 uM to 30 nM, each added to 10 uM of SB431542
Protocol: The inventors contemplated that establishing an even cell distribution is critical for inducing homogenous neural differentiation of hESCs. To this end, undifferentiated hESC were dissociated into single cells and re-plated onto Matrigel coated dishes in conditioned medium supplement with ROCK inhibitor, Y-27632 (Wananabe et at, 2007). After 72 hours cells were switched from hESC conditions to knock-out serum replacement medium (KSR) containing either Noggin, SB4315242, or both factors and allowed to differentiate for a total of 11 days (FIG. 1.a.). […] Neural induction was monitored by expression of PAX6, an early marker of neuroectodermal differentiation ([…], et al., Annu Rev Neurosci 20:483 (1997). As an alternative to the specific Smad inhibitors used here, it is possible to block both distinct Smad pathways using alternative inhibitors or mechanisms. Dorsomorphin is a small molecule alternative to Noggin, targeting the same pathway. Concentrations ranged from 10 uM to 30 nM, each individual amount added to 10 uM of SB431542. […] Quantitative Real-Time (Dual SMAD). […] For each sample, 1 ug of total RNA was treated for DNA contamination and reverse transcribed using the Quantitect RT kit (Qiagen). Amplified material was detected using Quantitect SYBR green probes and PCR kit (Qiagen) on a Mastercycler RealPlex2 (Eppendorf). […]

[2] = system: NSB derived neural precursor cells; assay: Conditioned media patterning of naive neural progenitor cells, qRT-PCR; format: cell-based, human
From the text: The FP has important functional roles during development in neural patterning and axonal path finding (Jessell, 2000). To assess the functional properties of hESCs derived FP conditioned media was isolated at days 9 and 11 and tested for expression of Netrin-1 in the medium using ELISA (FIG. 3A). Under normal NSB conditions, Netrin-1 is detectable at Day 9 and decreases at Day 11 while in the NSB+SHH condition, there is a 3.5 fold increase in Netrin-1 levels, increasing at Day 11 (FIG. 3B). SHH is a critical patterning factor secreted by FP cells and specifying ventral cell types in a dose-dependent manner. To test if hESCs derived FP secretes factors that can specify ventral precursor domains, conditioned media (CM) was isolated at Days 9 and 11 of the differentiation. At Day 6, exogenous SHH was removed and cultures were washed to eliminate any exogenously added SHH from the medium. Naïve neural progenitor cells were isolated at Day 11 of the control (NSB) protocol and cultured with either NSB CM or FP CM. After Day 5 of culture in the presence of CM, the inventors probed for the expression of ventral precursor markers and expression of the SHH responsive gene GLI2. […] Increase in the expression of ventral markers was confirmed at the level of protein (FIG. 3C′).

hESCs [3] = assay: Floor plate induction in NSB protocol, FOXA2 immunostaining; format: cell-based, human; settings: NSB protocol
Protocol: (§1) For MS5 induction, established methods previously reported were used (Perrier et al., 2004). Feeder free neural induction was carried out as previously described (Chambers et al., 2009). Briefly, hESCs cultures were disaggregated using accutase for 20 minutes, washed using hESCs media and pre-plated on gelatin for 1 hour at 37° C. in the presence of ROCK inhibitor to remove MEFs. The nonadherent hESCs were washed and plated on matrigel at a density of 20,000 cells/cm2 on matrigel (BD) coated dishes in MEF conditioned hESCs media (CM) spiked with 10 ng/mL of FGF-2 and ROCK-inhibitor. The ROCK inhibitor was withdrawn, and hESCs were allowed to expand in CM for 3 days or until they were nearly confluent. The initial differentiation media conditions included knock out serum replacement (KSR) media with […] TGF-b inhibitor (SB431542, Tocris) and 500 ng/mL of Noggin (R&D). Upon day 5 of differentiation, increasing amounts of N2 media (25%, 50%, 75%) was added to the KSR media every two days while maintaining 500 ng/mL of Noggin and TGF-b inhibitor. For FP induction, Sonic C25II was added at 200 ng/ml.
Tissue was fixed using 4% paraformaldehyde and Picric acid for 15 minutes, washed with PBS, permeablized using 0.3% Triton X in PBS, and blocked using 10% Donkey Serum. Primary antibodies used for microscopy included PAX6 (Covance), TUJ1 (Covance), ZO1 (Zymed), BF1 (FOXG1, gift E.Lai), TH (Pelfreez), NKX6.1 (DSHB) and FOXA2 (SantaCruz).
Using this protocol, in combination with compositions and methods of the present inventions, the inventors aimed to optimize FP differentiation by adding Sonic C25II at different time points during neural induction and assaying for FOXA2 expression. Differentiation was initiated upon NSB exposure, and Sonic C25II was added at Day 1, Day 3, Day 5, or Day 7 (FIG. 2A).

[4] = system: rosette-stage neural cells; assay: Floor plate induction in stromal-feeder (MS5) derived / rosette-stage neural cells; format: cell-based, human
Protocol: as §1
hESC derived neural cells at the rosette stage were differentiated into both CNS and PNS progeny and patterned towards multiple cells fates along the A/P and D/V axis (Elkabetz et al., 2008). […] Specification of progenitor cells into FP tissue and cells during mouse development was thought to depend on SHH signaling within early neural lineages. The inventors tested whether rosette-stage neural cells were competent to undergo FP specification in response to SHH. High concentrations of SHH were needed to induce FP during mouse development (Roelink et al., 1994; Ericson et al., 1996). Recombinant N-terminal SHH has a limited activity range due to the lack of posttranslational modifications required for full SHH action. Recently, a modified version of recombinant SHH became available where SHH was tethered to two Isoleucines (Sonic C25II, R&D Systems), mimicking more closely the potency of mammalian SHH protein.
The majority of cells retained rosette cytoarchitecture and staining for the AN marker BF1 as described previously (FIG. 1A) (Elkabetz et al., 2008).
Based on the hypothesis that FP specification in the mouse occurs at early developmental stages, at the time of or prior to neural induction, the inventors repeated SHH induction studies at Day 9, the time of rosette specification, using classic stromal-feeder mediated neural induction protocols (Elkabetz et al., 2008). Under this paradigm the inventors noticed a drastic change in cell morphology restricted to the cells treated with SHH-C25II (FIG. 1B).

[5] = most functional assays; cited from earlier work
DKK-1 = DKK-1 transcript (qPCR) and protein in medium (ELISA); format: cell-based, human; settings: as early as 2 days post treatment
hESCs [6] = assay: qRT-PCR of FP, AN and regional markers during FP induction; format: cell-based, human
Protocol: as §1
Total RNA was extracted using an RNeasy kit (Qiagen). For each sample, 1 ug of total RNA was treated for DNA contamination and reverse transcribed using the Superscript III (Invitrogen). Amplified material was detected using Taqman probes and PCR mix (ABI) on a Mastercycler RealPlex2 (Eppendorf). All results were normalized to a HPRT control and are from 3 technical replicates of 3 independent biological samples at each data point.
FOXA2 is a key marker of FP development. However, FOXA2 is also highly expressed in the endoderm. To further characterize the hESC derived putative FP tissue, the inventors performed qRT-PCR analyses for candidate markers at Day 11. […] The inventors further characterized the nature of FOXA2+ putative FP cells using a panel of neural precursor, glial, neuronal and non-neural markers (FIG. 7). […] To distinguish FOXA2 expression in hESC derived FP versus endoderm tissue, the inventors differentiated hESCs to endoderm (D'Amour et al., 2005).
To gain further insight into the factors critical for human FP specification, high resolution temporal gene expression profiles of candidate markers were performed at 6 time points during the 11 day protocol.
The inventors contemplated the use of SIX6 as a putative marker of anterior FP identity. Thus SIX6 status of the hESC derived FP was used to mark respecification in response to known caudalizing agents such as FGF8, Wnt-1, and Retinoic Acid. Each of these caudalizing factors was added in combination with SHH and the resulting tissue was assessed for expression of the FP markers FOXA2 and NETRIN-1, the AN marker BF1, and putative anterior FP marker SIX6.

hESCs [7] = assay: Placode induction from hESC (Six1 immunocytochemistry, qRT-PCR); format: cell-based, human; settings: early addition to SB431542 (1 μM) treated hESCs
From the text: Sensory placodes are developmental structures formed at the interface of early neuroectodermal and non-neural ectoderm tissue. To address whether the N-SB culture system is suitable for the derivation of placodal cells, The inventors first established a set of markers to identify placode identity in human embryonic stem cells (hESCs)-derived cultures. From studies in other model organisms, The inventors postulated a number of candidate markers to identify human placodal precursor during hESC differentiation including member of the Six, Eya, and Dlx family of transcription factors. Six1 marks the pre-placodal region and placodal cells in model organisms but is also expressed in skeletal muscle precursors.
276(1): p. 1-15, herein incorporated by reference. To test whether addition of exogenous BMPs enhances the derivation of Six1+ cells, The inventors exposed SB431542 (1 μM) treated hESCs to various concentration of BMP4. […] 27(3): p. 275-80; Xu, et al., Nat Biotechnol, 2002. 20(12): p. 1261-4, herein incorporated by reference.
We next explored whether simple withdrawal of the BMP inhibitor noggin during N-SB differentiation may enhance the emergence of placodal fates by de-repressing endogenous BMP signaling. […]

## c1cc(-c2cnn3cc(-c4ccc(OCCN5CCCCC5)cc4)cnc23)ccn1 [Dorsomorphin, 6-[4-[2-(1-Piperidinyl)ethoxy]phenyl]-3-(4-pyridinyl)-pyrazolo[1,5-a]pyrimidine dihydrochloride]
hESCs [1]
  efficiency of neural induction based on the percentage of PAX6+ cells: not as high as used with Noggin/SB431542

## CC1=C2C[C@H]3[C@@H](CC=C4C[C@@H](O)CC[C@@]43C)[C@@H]2CC[C@]12O[C@@H]1C[C@H](C)CN[C@H]1[C@H]2C [cyclopamine]
[2]
  NKX2.1, NKX6.1 and GLI2 expression induced by FP conditioned media: significantly reduced

## Sonic C25II: modified recombinant SHH tethered to two Isoleucines (R&D Systems); 'SHH' in FP induction examples, added at 200 ng/ml
hESCs [3]
  FOXA2 yield with extended treatment beyond Day 11: did not increase FOXA2 yield
hESCs [3]; added starting at day 1
  FOXA2+ cells (of total cells): about 65%
[4]; added at Day 9, stromal-feeder neural induction
  concentrations achieving induction of FOXA2+ cells and decrease in BF1 and PAX6: 125 to 500 ng/mL
[4]; added at Day 9, stromal-feeder neural induction, Day 21
  induction of FOXA2+ cells: robust upregulation of FOXA2+
[4]; dose-response, added at Day 15
  FP marker (FOXA2) expression on established rosette-stage neural cells: did not yield cells expressing FP markers
[5]
  potency relative to non-modified N-terminal SHH: ~10 times
DKK-1
  DKK-1 mRNA and protein levels: drastic reduction
hESCs [6]; Day 5 of differentiation, FP induction versus NSB control
  increase in SIX6 mRNA levels: About 50,000 fold
hESCs [6]; day 7, versus NSB
  PAX6 and BF1 expression: drastic reduction in PAX6 and BF1

B1: BMP4: bone morphogenetic protein-4, exogenous BMP (protein, UniProt P12644 293-408, looked up)
Bone morphogenetic protein 4: SPKHHSQRARKKNKNCRRHSLYVDFSDVGWNDWIVAPPGYQAFYCHGDCPFPLADHLNSTNHAIVQTLVNSVNSSIPKACCVPTELSAISMLYLDEYDKVVLKNYQEMVVEGCGCR
hESCs [7]
  cdx2 induction / trophoectodermal differentiation: induction of cdx2
